Measurements as given in publication PMC6598542, “Synthesis of a new series of 3-functionalised-1-phenyl-1,2,3-triazole sulfamoylbenzamides as carbonic anhydrase I, II, IV and IX inhibitors” (Journal of Enzyme Inhibition and Medicinal Chemistry, 2019).

Experiments:
hCA II = target: T1, hCA II (Homo sapiens, UniProt P00918); experiment: stopped-flow CO2 hydration; type: biochemical; details: read-out: hCAII
T1 construct: gene CA2; recombinant, cytosolic isoform
Procedure, shortened: (§1)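 Inhibition of recombinant human isozymes was measured by stopped-flow CO2 hydration, and Ki was obtained by non-linear least-squares fitting with the Cheng-Prusoff equation. Enzyme and inhibitor were first preincubated for 10 min at room temperature, then the reaction was followed for 5–10 s at 557 nm and 25 °C in 10 mM Hepes pH 7.4 containing 0.2 mM Phenol Red and 0.1 M Na2SO4 or NaClO4, with CO2-saturated water as substrate. Each value is the mean of at least three determinations, from at least seven inhibitor concentrations down to 0.01 nM tested in triplicate.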

hCA IX = target: T2, hCA IX (Homo sapiens, UniProt Q16790); experiment: stopped-flow CO2 hydration; type: biochemical
T2 construct: gene CA9; recombinant, transmembrane isoform
Procedure, shortened: as §1

hCA IV [1] = target: T3, hCA IV (Homo sapiens, UniProt P22748); experiment: stopped-flow CO2 hydration; type: biochemical
T3 construct: gene CA4
Procedure, shortened: as §1

hCA I = target: T4, hCA I (Homo sapiens, UniProt P00915); experiment: stopped-flow CO2 hydration; type: biochemical
T4 construct: gene CA1; recombinant, cytosolic isoform
Procedure, shortened: as §1

hCA IV [2] = target: T3, hCA IV; experiment: biochemical; parameters: Stopped-flow CO2 hydration assay, phenol red at 557 nm, 10 min preincubation, recombinant hCA; Ki via Cheng-Prusoff
Protocol: An SX.18 MV-R Applied Photophysics (Oxford, UK) stopped-flow instrument has been used for assaying the CA catalyzed CO2 hydration activity. Phenol Red (at a concentration of 0.2 mM) has been used as indicator, working at the absorbance maximum of 557 nm, with 10 mM Hepes (pH 7.4) as buffer, 0.1 M Na2SO4 or NaClO4 (for maintaining constant the ionic strength; these anions are not inhibitory in the used concentration), following the CA-catalyzed CO2 hydration reaction for a period of 5–10 s. Saturated CO2 solutions in water at 25 °C were used as substrate. Stock solutions of inhibitors were prepared at a concentration of 10 μM (in DMSO-water 1:1, v/v) and dilutions up to 0.01 nM done with the assay buffer mentioned above. At least seven different inhibitor concentrations have been used for measuring the inhibition constant. Inhibitor and enzyme solutions were preincubated together for 10 min at room temperature prior to assay, in order to allow for the formation of the E-I complex. Triplicate experiments were done for each inhibitor concentration, and the values reported throughout the paper are the mean of such results. The inhibition constants were obtained by non-linear least-squares methods using the Cheng-Prusoff equation, as reported earlier, and represent the mean from at least three different determinations. All CA isozymes used here were recombinant proteins obtained as reported earlier by our group[10]^c,[25]^,[26]. The newly synthesised compounds 3-sulfamoylbenzamide linked 1,2,3-triazoles (Figure 4) (6a–z) as well as the intermediates (3a–d) and (4a–d) (listed in Table 1) were screened for their CA inhibitory activities against four physiologically significant isoforms, the cytosolic hCA I (associated with edema) and II (associated with glaucoma) as well as the membrane bound hCA IV (associated with glaucoma and retinitis pigmentosa) and transmembrane hCA IX (associated with tumors) by means of the stopped flow carbon dioxide assays[29] in comparison to AAZ as standard CAI (Table 2).

T4 sequence (P00915 2-261): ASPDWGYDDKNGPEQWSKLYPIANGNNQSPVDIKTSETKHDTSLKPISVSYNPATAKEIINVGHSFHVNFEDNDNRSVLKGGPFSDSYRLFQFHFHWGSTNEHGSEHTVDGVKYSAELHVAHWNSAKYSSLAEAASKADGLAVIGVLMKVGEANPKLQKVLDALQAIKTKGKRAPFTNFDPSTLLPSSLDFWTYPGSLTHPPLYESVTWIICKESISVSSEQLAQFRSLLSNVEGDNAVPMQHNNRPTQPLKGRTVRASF
T3 sequence (P22748 19-284): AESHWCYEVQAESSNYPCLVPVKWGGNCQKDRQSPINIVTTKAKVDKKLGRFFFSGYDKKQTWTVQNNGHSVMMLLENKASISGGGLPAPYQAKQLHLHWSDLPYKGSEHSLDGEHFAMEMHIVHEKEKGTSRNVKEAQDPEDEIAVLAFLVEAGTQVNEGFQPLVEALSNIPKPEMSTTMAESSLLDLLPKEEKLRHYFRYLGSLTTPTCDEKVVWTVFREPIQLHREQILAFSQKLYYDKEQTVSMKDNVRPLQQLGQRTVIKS

NS(=O)(=O)c1cc(C(=O)NCc2cn(-c3ccccc3)nn2)ccc1F [6n, 4-Fluoro-N-((1-phenyl-1H-1,2,3-triazol-4-yl)methyl)-3-sulfamoylbenzamide]
Ki (hCA II): 49.7 nM
Ki (hCA IX): 84.5 nM
Ki (hCA IV [1]): 240 nM
Ki (hCA I): 890 nM

NS(=O)(=O)c1cc(C(=O)NCc2cn(-c3ccccc3)nn2)ccc1Cl [6i, 4-Chloro-N-((1-phenyl-1H-1,2,3-triazol-4-yl)methyl)-3-sulfamoylbenzamide]
Ki (hCA II): 71.2 nM
Ki (hCA IX): 84.4 nM
Ki (hCA IV [1]): 170 nM
Ki (hCA I): 312 nM

N#Cc1cccc(-n2cc(CNC(=O)c3ccc(F)c(S(N)(=O)=O)c3)nn2)c1 [6s, N-((1–(3-cyanophenyl)-1H-1,2,3-triazol-4-yl)methyl)-4-fluoro-3-sulfamoylbenzamide]
Ki (hCA II): 402 nM
Ki (hCA IX): 67.9 nM
Ki (hCA IV [1]): 3400 nM
Ki (hCA I): 696 nM

C#CCNC(=O)c1ccc(Cl)c(S(N)(=O)=O)c1 [4b, 4-Chloro-N-(prop-2-yn-1-yl)-3-sulfamoylbenzamide]
Ki (hCA II): 73.5 nM
Ki (hCA IX): 447 nM
Ki (hCA IV [1]): 78.8 nM
Ki (hCA I): 4930 nM

NS(=O)(=O)c1cc(C(=O)NCc2cn(-c3ccc(Br)cc3)nn2)ccc1F [6t, N-((1–(4-bromophenyl)-1H-1,2,3-triazol-4-yl)methyl)-4-fluoro-3-sulfamoylbenzamide]
Ki (hCA II): 372 nM
Ki (hCA IX): 71.5 nM
Ki (hCA IV [1]): 515 nM
Ki (hCA I): 696 nM

NS(=O)(=O)c1cc(C(=O)NCc2cn(-c3cccc(F)c3)nn2)ccc1F [6q, 4-Fluoro-N-((1–(3-fluorophenyl)-1H-1,2,3-triazol-4-yl)methyl)-3-sulfamoylbenzamide]
Ki (hCA II): 329 nM
Ki (hCA IX): 30.8 nM
Ki (hCA IV [1]): 5310 nM
Ki (hCA I): 426 nM

COc1cc(-n2cc(CNC(=O)c3ccc(Cl)c(S(N)(=O)=O)c3)nn2)cc(OC)c1OC [6j, 4-Chloro-3-sulfamoyl-N-((1–(3,4,5-trimethoxyphenyl)-1H-1,2,3-triazol-4-yl)methyl)-benzamide]
Ki (hCA II): 51.4 nM
Ki (hCA IX): 212 nM
Ki (hCA IV [1]): 2280 nM
Ki (hCA I): 479 nM

NS(=O)(=O)c1cc(C(=O)NCc2cn(-c3ccc(C(F)(F)F)cc3)nn2)ccc1F [6p, 4-Fluoro-3-sulfamoyl-N-((1–(4-(trifluoromethyl)phenyl)-1H-1,2,3-triazol-4-yl)methyl)benzamide]
Ki (hCA II): 91.1 nM
Ki (hCA IX): 235 nM
Ki (hCA IV [1]): 91.8 nM
Ki (hCA I): 369 nM

COc1ccc(-n2cc(CNC(=O)c3ccc(Cl)c(S(N)(=O)=O)c3)nn2)cc1 [6k, 4-Chloro-N-((1–(4-methoxyphenyl)-1H-1,2,3-triazol-4-yl)methyl)-3-sulfamoylbenzamide]
Ki (hCA II): 56.5 nM
Ki (hCA IX): 41.6 nM
Ki (hCA IV [1]): 80 nM
Ki (hCA I): 86.7 nM

COc1ccc(-n2cc(CNC(=O)c3ccc(F)c(S(N)(=O)=O)c3)nn2)cc1 [6o, 4-Fluoro-N-((1–(4-methoxyphenyl)-1H-1,2,3-triazol-4-yl)methyl)-3-sulfamoylbenzamide]
Ki (hCA II): 73.5 nM
Ki (hCA IX): 63.1 nM
Ki (hCA IV [1]): 175 nM
Ki (hCA I): 69.2 nM

C#CCNC(=O)c1ccc(F)c(S(N)(=O)=O)c1 [4c, 4-Fluoro-N-(prop-2-yn-1-yl)-3-sulfamoylbenzamide]
Ki (hCA II): 165 nM
Ki (hCA IX): 816 nM
Ki (hCA IV [1]): 429 nM
Ki (hCA I): 747 nM

NS(=O)(=O)c1cc(C(=O)NCc2cn(-c3ccc(C(F)(F)F)cc3)nn2)ccc1Cl [6m, 4-Chloro-3-sulfamoyl-N-((1–(4-(trifluoromethyl)phenyl)-1H-1,2,3-triazol-4-yl)methyl)benzamide]
Ki (hCA II): 7.8 nM
Ki (hCA IX): 34.6 nM
Ki (hCA IV [1]): 89.9 nM
Ki (hCA I): 811 nM

Cc1ccc(-n2cc(CNC(=O)c3ccc(F)c(S(N)(=O)=O)c3)nn2)cc1 [6r, 4-Fluoro-3-sulfamoyl-N-((1-(p-tolyl)-1H-1,2,3-triazol-4-yl)methyl)benzamide]
Ki (hCA II): 260 nM
Ki (hCA IX): 67.5 nM
Ki (hCA IV [1]): 215 nM
Ki (hCA I): 836 nM

Cc1ccc(-n2cc(CNC(=O)c3cccc(S(N)(=O)=O)c3)nn2)c(C)c1 [6h, N-((1–(2,4-dimethylphenyl)-1H-1,2,3-triazol-4-yl)methyl)-3-sulfamoylbenzamide]
Ki (hCA II): 516 nM
Ki (hCA IX): 226 nM
Ki (hCA IV [2]): 1760 nM
Ki (hCA I): 693 nM

COc1ccc(C(=O)NCc2cn(-c3ccc(C)cc3C)nn2)cc1S(N)(=O)=O [6x, N-((1–(2,4-dimethylphenyl)-1H-1,2,3-triazol-4-yl)methyl)-4-methoxy-3-sulfamoylbenzamide]
Ki (hCA II): 6390 nM
Ki (hCA IX): 93.8 nM
Ki (hCA IV [2]): 9340 nM
Ki (hCA I): 7560 nM

NS(=O)(=O)c1cc(C(=O)O)ccc1F [3c, 4-Fluoro-3-sulfamoylbenzoic acid]
Ki (hCA II): 760 nM
Ki (hCA IX): 9570 nM
Ki (hCA IV [2]): 958 nM
Ki (hCA I): 5750 nM

COc1ccc(C(=O)NCc2cn(-c3ccc(Br)cc3)nn2)cc1S(N)(=O)=O [6y, N-((1–(4-bromophenyl)-1H-1,2,3-triazol-4-yl)methyl)-4-methoxy-3-sulfamoylbenzamide]
Ki (hCA II): 2330 nM
Ki (hCA IX): 1870 nM
Ki (hCA IV [2]): 9080 nM
Ki (hCA I): 555 nM

C#CCNC(=O)c1ccc(OC)c(S(N)(=O)=O)c1 [4d, 4-Methoxy-N-(prop-2-yn-1-yl)-3-sulfamoylbenzamide]
Ki (hCA II): 5530 nM
Ki (hCA IX): 9220 nM
Ki (hCA IV [2]): 6840 nM
Ki (hCA I): 9500 nM
